Assay results reported in US9012635B2, “Pyridone amides and analogs exhibiting anti-cancer and anti-proliferative activities” (Deciphera Pharmaceuticals, LLC, priority 2013, dated 2015).
Counter-ions that a name gives are not always drawn.

Columns and labels:
MKN-45 cells = experiment: MKN-45 cell proliferation assay (resazurin); format: cell-based; conditions: Homo sapiens, 67 h + 5 h resazurin
Method: MKN-45 cells (catalog #JCRB0254) were obtained from the Japan Health Science Research Resources Bank, Osaka, Japan. Briefly, cells were grown in RPMI 1640 media supplemented with 10% characterized fetal bovine serum (Invitrogen, Carlsbad, Calif.) at 37° C., 5% CO2, 95% humidity. Cells were allowed to expand until reaching 70-95% confluency at which point they were subcultured or harvested for assay use.
A serial dilution of test compound was dispensed into a 96-well black clear bottom plate (Corning, Corning, N.Y.). Five thousand cells were added per well in 200 μL complete growth medium. Plates were incubated for 67 hours at 37° C., 5% CO2, 95% humidity. At the end of the incubation period 40 μL of a 440 μM solution of resazurin (Sigma, St. Louis, Mo.) in PBS was added to each well and plates were incubated for an additional 5 h at 37° C., 5% CO2, 95% humidity. Plates were read on a Synergy2 reader (Biotek, Winooski, Vt.) using an excitation of 540 nm and an emission of 600 nm. Data was analyzed using Prism software (GraphPad, San Diego, Calif.) to calculate IC50 values.

[1] = biological target: T1, c-MET kinase (Seq. ID No. 2) (Homo sapiens, UniProt P08581); experiment: c-MET kinase assay (pyruvate kinase/lactate dehydrogenase coupled, A340); format: biochemical; conditions: enzymatic assay, 0.5 h pre-incubation, ATP 100 μM; read-out: cMET
T1 construct: c-MET (c-MET residues: 956-1390, from Invitrogen, catalogue #PV3143, 6 nM); purchased Invitrogen PV3143
Method: Activity of c-MET kinase (Seq. ID No. 2) was determined by following the production of ADP from the kinase reaction through coupling with the pyruvate kinase/lactate dehydrogenase system (e.g., Schindler et al. Science 2000, 289, pp. 1938-1942). In this assay, the oxidation of NADH (thus the decrease at A340 nm) was continuously monitored spectrophotometrically. The reaction mixture (100 μl) contained c-MET (c-MET residues: 956-1390, from Invitrogen, catalogue #PV3143, 6 nM), polyE4Y (1 mg/mL), MgCl2 (10 mM), pyruvate kinase (4 units), lactate dehydrogenase (0.7 units), phosphoenol pyruvate (1 mM), and NADH (0.28 mM) in 90 mM Tris buffer containing 0.25 mM DTT, 0.2% octyl-glucoside and 1% DMSO, pH 7.5. Test compounds were incubated with c-MET (Seq. ID No. 2) and other reaction reagents at 22° C. for 0.5 h before ATP (100 μM) was added to start the reaction. The absorption at 340 nm was monitored continuously for 2 hours at 30° C. on Polarstar Optima plate reader (BMG). The reaction rate was calculated using the 1.0 to 2.0 h time frame. Percent inhibition was obtained by comparison of reaction rate with that of a control (i.e., with no test compound). IC50 values were calculated from a series of percent inhibition values determined at a range of inhibitor concentrations using software routines as implemented in the GraphPad Prism software package.

FMS kinase = biological target: T2, FMS kinase (Homo sapiens, UniProt P07333); experiment: FMS kinase assay (pyruvate kinase/lactate dehydrogenase coupled, A340); format: biochemical; conditions: enzymatic assay, ATP 500 μM
T2 construct: purchased Millipore
T2 sequence (P07333 538-972): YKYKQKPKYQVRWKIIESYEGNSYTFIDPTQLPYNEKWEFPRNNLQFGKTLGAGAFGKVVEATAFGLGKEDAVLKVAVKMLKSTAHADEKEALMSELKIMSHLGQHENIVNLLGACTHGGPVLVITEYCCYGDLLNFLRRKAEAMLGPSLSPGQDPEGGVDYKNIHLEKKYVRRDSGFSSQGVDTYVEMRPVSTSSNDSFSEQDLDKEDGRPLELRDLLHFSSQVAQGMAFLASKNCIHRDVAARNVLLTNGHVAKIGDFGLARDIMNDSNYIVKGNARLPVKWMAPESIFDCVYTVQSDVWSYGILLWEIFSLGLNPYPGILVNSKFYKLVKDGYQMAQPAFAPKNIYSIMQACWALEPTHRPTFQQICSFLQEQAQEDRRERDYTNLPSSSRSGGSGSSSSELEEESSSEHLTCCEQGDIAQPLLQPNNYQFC
Method: Activity of FMS kinase was determined by following the production of ADP from the FMS kinase reaction with ATP and poly E4Y as substrates through coupling with the pyruvate kinase/lactate dehydrogenase system (e.g., Schindler et al. Science (2000) 289: 1938-1942). In this assay, the oxidation of NADH (thus the decrease at A340 nm) was continuously monitored spectrophometrically. The reaction mixture (100 μl) contained FMS (purchased from Millipore) (10 nM), polyE4Y (1 mg/mL), MgCl2 (10 mM), pyruvate kinase (4 units), lactate dehydrogenase (0.7 units), phosphoenol pyruvate (1 mM), and NADH (0.28 mM) and ATP (500 μM) in 90 mM Tris buffer containing 0.2% octyl-glucoside and 1% DMSO, pH 7.5. Immediately, the inhibition reaction was started by mixing serial diluted test compound with the above reaction mixture. The absorption at 340 nm was monitored continuously for 4 hours at 30° C. on Synergy 2 plate reader. The reaction rate was calculated using the 3 to 4 h time frame. Percent inhibition was obtained by comparison of reaction rate with that of a control (i.e. in the absence of test compound). IC50 values were calculated from a series of percent inhibition values determined at a range of inhibitor concentrations using software routines as implemented in the GraphPad Prism software package.

T1 sequence (P08581 with tags, fused parts or gaps): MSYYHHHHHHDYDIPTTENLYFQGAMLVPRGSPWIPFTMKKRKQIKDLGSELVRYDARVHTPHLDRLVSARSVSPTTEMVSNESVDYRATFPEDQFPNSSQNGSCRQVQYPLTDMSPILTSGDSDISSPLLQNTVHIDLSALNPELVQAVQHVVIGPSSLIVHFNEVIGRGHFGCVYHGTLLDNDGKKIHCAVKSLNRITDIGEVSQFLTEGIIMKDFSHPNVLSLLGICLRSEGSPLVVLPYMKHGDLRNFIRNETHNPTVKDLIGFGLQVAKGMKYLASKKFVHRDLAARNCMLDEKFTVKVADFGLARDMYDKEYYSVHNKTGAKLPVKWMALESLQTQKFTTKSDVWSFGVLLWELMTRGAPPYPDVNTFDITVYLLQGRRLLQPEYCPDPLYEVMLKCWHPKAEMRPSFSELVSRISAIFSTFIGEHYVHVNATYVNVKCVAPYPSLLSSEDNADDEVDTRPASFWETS

SMILES | IC50 (MKN-45 cells) | IC50 [1] | IC50 (FMS kinase)
Cn1cc(-c2cc(Oc3cc(F)c(NC(=O)c4cccn(-c5ccc(F)cc5)c4=O)cc3F)ccn2)cn1 [Example 1, N-(2,5-difluoro-4-((2-(1-methyl-1H-pyrazol-4-yl)pyridin-4-yl)oxy)phenyl)-1-(4-fluorophenyl)-2-oxo-1,2-dihydropyridine-3-carboxamide] | ≤ 100 nM | ≤ 100 nM | ≤ 100 nM
O=C(Nc1cc(F)c(Oc2ccnc(-c3cnn(CCO)c3)c2)cc1F)c1cccn(-c2ccc(F)cc2)c1=O [Example 3, N-(2,5-difluoro-4-((2-(1-(2-hydroxyethyl)-1H-pyrazol-4-yl)pyridin-4-yl)oxy)phenyl)-1-(4-fluorophenyl)-2-oxo-1,2-dihydropyridine-3-carboxamide hydrochloride] | – | ≤ 100 nM | ≤ 100 nM
CCNc1ccn(-c2ccc(F)cc2)c(=O)c1C(=O)Nc1cc(F)c(Oc2ccnc(-c3cnn(C)c3)c2)cc1F [Example 5, N-(2,5-difluoro-4-((2-(1-methyl-1H-pyrazol-4-yl)pyridin-4-yl)oxy)phenyl)-4-(ethylamino)-1-(4-fluorophenyl)-2-oxo-1,2-dihydropyridine-3-carboxamide] | 100 to 1000 nM | ≤ 100 nM | 100 to 1000 nM
CCOc1ccn(-c2ccc(F)cc2)c(=O)c1C(=O)Nc1cc(F)c(Oc2ccnc(-c3cnn(C)c3)c2)cc1F [Example 2, N-(2,5-difluoro-4-(2-(1-methyl-1H-pyrazol-4-yl)pyridin-4-yloxy)phenyl)-4-ethoxy-1-(4-fluorophenyl)-2-oxo-1,2-dihydropyridine-3-carboxamide] | ≤ 100 nM | ≤ 100 nM | 100 to 1000 nM
